Assay results taken from patent publication US12473294B2, “Selective modulators of mutant LRRK2 proteolysis and associated methods of use” (Arvinas Operations, Inc., priority 2020, dated 2025).

Tests used:
G2019S LRRK2 = biological target: T1, G2019S LRRK2 (Homo sapiens, UniProt Q5S007, G2019S); experiment: LRRK2 degradation HiBit assay, G2019S LRRK2 tagged with a HiBit tag expressed in HEK293 cells; format: cell-based; conditions: 24 hours compound incubation; for Dmax: HEK293, HEK293 cells; for DC50: HEK293 cells
T1 construct: expressed in transfected cells; host or cells: HEK293 (ATCC CRL-1573)
Procedure, shortened: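 HEK293 cells were transiently transfected with G2019S LRRK2 carrying a C-terminal HiBit tag (ubiquitin promoter) plus firefly luciferase, then exposed to compound for 24 h at 37 °C. Dual luminescence gave the HiBit/luciferase ratio ×1000, normalised to DMSO. DC50 and Dmax were fitted per plate.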

wildtype LRRK2 = biological target: T2, wildtype LRRK2 (Homo sapiens, UniProt Q5S007); experiment: LRRK2 degradation HiBit assay, wildtype LRRK2 tagged with a HiBit tag in HEK293 cells; format: cell-based; conditions: 24 hours compound incubation; for Dmax: read-out: ** WT Dmax (%); for DC50: read-out: *WT DC50
T2 construct: endogenous in cells; host or cells: HEK293 with HiBit knocked in at the 3' end of the endogenous LRRK2 gene, stably expressing firefly luciferase
Procedure, shortened: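 HEK293 cells transiently co-transfected with ubiquitin-promoter-driven C-terminally HiBit-tagged wildtype LRRK2 plus firefly luciferase, then treated with compound for 24 h at 37° C. HiBit/luciferase ratio ×1000 normalized to DMSO median; DC50 and Dmax fitted per plate, six replicates across two days.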

T2 sequence (Q5S007 whole entry): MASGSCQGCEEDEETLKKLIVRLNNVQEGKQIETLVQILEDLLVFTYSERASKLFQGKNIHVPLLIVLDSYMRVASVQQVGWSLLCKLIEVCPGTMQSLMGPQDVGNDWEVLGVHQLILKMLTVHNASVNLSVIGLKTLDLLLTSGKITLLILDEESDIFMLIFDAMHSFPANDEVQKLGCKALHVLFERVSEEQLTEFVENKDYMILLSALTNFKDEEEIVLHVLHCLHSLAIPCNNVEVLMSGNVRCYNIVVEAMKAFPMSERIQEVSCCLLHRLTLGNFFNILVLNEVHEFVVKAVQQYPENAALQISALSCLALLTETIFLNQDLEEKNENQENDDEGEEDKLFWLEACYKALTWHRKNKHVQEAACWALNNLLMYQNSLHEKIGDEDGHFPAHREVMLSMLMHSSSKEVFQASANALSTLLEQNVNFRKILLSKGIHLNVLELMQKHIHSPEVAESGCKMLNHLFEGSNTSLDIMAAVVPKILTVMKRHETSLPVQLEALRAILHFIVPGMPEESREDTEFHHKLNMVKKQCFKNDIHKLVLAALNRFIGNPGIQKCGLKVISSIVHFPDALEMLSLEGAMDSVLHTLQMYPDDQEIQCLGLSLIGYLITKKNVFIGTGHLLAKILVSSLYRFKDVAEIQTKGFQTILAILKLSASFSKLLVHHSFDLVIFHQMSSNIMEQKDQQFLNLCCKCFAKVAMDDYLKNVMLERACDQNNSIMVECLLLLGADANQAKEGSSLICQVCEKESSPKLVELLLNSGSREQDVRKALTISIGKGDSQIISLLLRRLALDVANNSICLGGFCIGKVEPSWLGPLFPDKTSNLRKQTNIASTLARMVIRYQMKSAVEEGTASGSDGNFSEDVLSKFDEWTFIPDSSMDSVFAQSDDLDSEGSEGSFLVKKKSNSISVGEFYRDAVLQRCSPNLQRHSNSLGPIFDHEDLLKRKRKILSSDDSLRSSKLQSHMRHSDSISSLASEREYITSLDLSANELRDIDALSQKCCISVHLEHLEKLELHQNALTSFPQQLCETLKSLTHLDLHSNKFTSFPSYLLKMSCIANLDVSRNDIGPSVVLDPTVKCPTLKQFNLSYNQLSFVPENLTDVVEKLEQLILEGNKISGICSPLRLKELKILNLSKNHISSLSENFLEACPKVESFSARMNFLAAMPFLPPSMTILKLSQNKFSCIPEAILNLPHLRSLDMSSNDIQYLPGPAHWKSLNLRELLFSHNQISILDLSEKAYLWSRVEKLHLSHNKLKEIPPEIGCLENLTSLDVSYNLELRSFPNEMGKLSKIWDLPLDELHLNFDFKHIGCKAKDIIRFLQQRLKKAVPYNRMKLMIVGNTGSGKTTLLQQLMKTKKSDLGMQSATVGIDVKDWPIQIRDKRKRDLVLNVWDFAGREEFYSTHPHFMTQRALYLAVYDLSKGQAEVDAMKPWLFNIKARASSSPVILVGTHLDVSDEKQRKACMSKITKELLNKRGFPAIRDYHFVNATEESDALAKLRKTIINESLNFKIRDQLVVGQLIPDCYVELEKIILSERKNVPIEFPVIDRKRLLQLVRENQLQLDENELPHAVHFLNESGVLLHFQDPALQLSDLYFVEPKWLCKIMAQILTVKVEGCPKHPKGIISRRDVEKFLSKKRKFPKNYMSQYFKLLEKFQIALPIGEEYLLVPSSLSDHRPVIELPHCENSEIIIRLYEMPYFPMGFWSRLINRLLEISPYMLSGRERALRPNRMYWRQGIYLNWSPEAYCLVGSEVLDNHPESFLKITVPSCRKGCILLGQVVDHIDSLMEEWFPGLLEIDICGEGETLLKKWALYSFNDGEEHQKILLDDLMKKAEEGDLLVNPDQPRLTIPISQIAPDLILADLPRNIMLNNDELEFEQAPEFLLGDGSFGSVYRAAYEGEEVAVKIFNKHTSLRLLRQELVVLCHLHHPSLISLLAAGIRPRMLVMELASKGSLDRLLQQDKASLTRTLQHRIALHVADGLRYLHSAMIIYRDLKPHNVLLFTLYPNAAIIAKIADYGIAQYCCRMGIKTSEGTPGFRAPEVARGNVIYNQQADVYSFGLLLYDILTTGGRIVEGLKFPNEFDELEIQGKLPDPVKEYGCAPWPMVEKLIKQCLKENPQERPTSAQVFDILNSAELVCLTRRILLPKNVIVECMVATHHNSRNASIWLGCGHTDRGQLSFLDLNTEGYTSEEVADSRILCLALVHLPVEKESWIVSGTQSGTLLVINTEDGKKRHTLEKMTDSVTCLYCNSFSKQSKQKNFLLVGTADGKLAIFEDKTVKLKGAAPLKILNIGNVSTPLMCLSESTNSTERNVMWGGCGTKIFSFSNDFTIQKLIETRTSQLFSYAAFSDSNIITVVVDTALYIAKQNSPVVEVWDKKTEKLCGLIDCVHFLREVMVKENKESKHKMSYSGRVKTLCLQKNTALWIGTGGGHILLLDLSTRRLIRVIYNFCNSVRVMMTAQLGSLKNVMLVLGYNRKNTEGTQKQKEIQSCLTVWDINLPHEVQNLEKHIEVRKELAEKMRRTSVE
T1 sequence (Q5S007 whole entry G2019S): as the sequence (Q5S007 whole entry) above, with G2019S counted along it

Dmax (G2019S LRRK2) [%]	DC50 (G2019S LRRK2) [nM]	Dmax (wildtype LRRK2) [%]	DC50 (wildtype LRRK2) [nM]	Compound
50 to 70	< 10	50 to 70	10 to 50	CC1=C(C(=O)Nc2ccc3[nH]nc(-c4ccnc(N5C[C@@H](C)N(CC6CCN(CC7CCN(c8ccc9c(c8)C(=O)N(C8CCC(=O)NC8=O)C9=O)CC7)CC6)[C@@H](C)C5)c4)c3c2)C(C)n2nnnc2N1C (stereo partly drawn) [compound 2, N-(3-(2-((3S,5R)-4-((1-((1-(2-(2,6-dioxopiperidin-3-yl)-1,3-dioxoisoindolin-5-yl)piperidin-4-yl)methyl)piperidin-4-yl)methyl)-3,5-dimethylpiperazin-1-yl)pyridin-4-yl)-1H-indazol-5-yl)-4,5,7-trimethyl-4,7-dihydrotetrazolo[1,5-a]pyrimidine-6-carboxamide]
< 50	≥ 100		≥ 100	CC1=C(C(=O)Nc2ccc3[nH]nc(-c4ccnc(N5CCN(CCN6CCC(CN7CCN(c8ccc9c(c8)C(=O)N(C8CCC(=O)NC8=O)C9=O)CC7)CC6)[C@@H](C)C5)c4)c3c2)C(C)(C)n2nnnc2N1C (stereo partly drawn) [compound 36, N-(3-{2-[(3S)-4-{2-[4-({4-[2-(2,6-dioxopiperidin-3-yl)-1,3-dioxo-2,3-dihydro-1H-isoindol-5-yl]piperazin-1-yl}methyl)piperidin-1-yl]ethyl}-3-methylpiperazin-1-yl]pyridin-4-yl}-1H-indazol-5-yl)-4,5,7,7-tetramethyl-4H,7H-[1,2,3,4]tetrazolo[1,5-a]pyrimidine-6-carboxamide]
< 50	10 to 50	< 50	≥ 100	CC1=C(C(=O)Nc2ccc3[nH]nc(-c4ccnc(N5CCN(CC6CCN(CC7CCN(c8ccc9c(c8)C(=O)N(C8CCC(=O)NC8=O)C9=O)CC7)CC6)CC5)c4)c3c2)C(C)(C)n2nnnc2N1C (centres unmarked) [compound 29, N-{3-[2-(4-{[1-({1-[2-(2,6-dioxopiperidin-3-yl)-1,3-dioxo-2,3-dihydro-1H-isoindol-5-yl]piperidin-4-yl}methyl)piperidin-4-yl]methyl}piperazin-1-yl)pyridin-4-yl]-1H-indazol-5-yl}-4,5,7,7-tetramethyl-4H,7H-[1,2,3,4]tetrazolo[1,5-a]pyrimidine-6-carboxamide]
